The values below come from patent US11415579B2, “Assay for measuring a rate of reaction between a target and a ligand candidate” (Imperial College Innovations Ltd., priority 2016, dated 2022).

The target in test [1] is T1, Cdk2(T182C) (C177A) (Homo sapiens, UniProt P24941, C177A/T182C).
T1 construct: poly-histidine; made in house; host or cells: E. coli
As to the kind of experiment: Kinetic thiol consumption assay with Cdk2 mutant T182C. The conditions noted are these: additional mutation C177A; for Rate constant with Cdk2 T182C: Protein: Cdk2, cysteine position T182C, in h^-1. Further details: key to Rate enhancement, Cdk2 T182C: rate constant with Cdk2 ÷ rate constant with model thiol (fold). The class given is binding. In outline:
(§1)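 5 μM thiol, degassed phosphate pH 8, 2% v/v immobilized TCEP beads; 1 h RT; fluorescence ex 380/em 470 nm; normalized vs DMSO/thiol-only; first-order exponential decay fit → rate constant; Cdk2 k / model-thiol k = rate enhancement per acrylamide.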

In test [2] the target is T2, Cdk2[C177A, F80C, K278C] (Homo sapiens, UniProt P24941, C177A/F80C/K278C).
T2 construct: poly-histidine; made in house; host or cells: E. coli
The test can be described thus: Kinetic thiol consumption assay with mutant Cdk2 as model thiol. The class given is binding. Also on record: unit not given here. The conditions noted are these: 500 μM ligand, 5 μM thiol, phosphate buffer pH 8. Here is the method: A library of 120 acrylamides was screened against a) human cyclin-dependent kinase 2 (Cdk2, which contains one surface exposed cysteine residue—C177), prepared by cloning cDNA into the pRSETA bacterial expression vector to generate a poly-histidine tagged Cdk2 fusion that was purified from E. coli using standard techniques, and b) a model thiol (specific details are given below). The structures of these 120 acrylamides are set out in Table 1, above.
To wells containing 150 μL thiol (Cdk2 or model thiol) (5 μM) in degassed phosphate buffer (pH 8) was added immobilized TCEP beads (2% v/v).
After incubation of the fluorescence plates for 1 hour at room temperature, fluorescence measurements (excitation/emission of 380/470 nm) were taken on a PerkinElmer EnVision multilabel plate reader and processed with EnVision Workstation version 1.12.
Fluorescence measurements were normalized against a DMSO/thiol only control and plotted against time.
Rate constants were calculated using GraphPad software Prism version 6 by fitting a first order exponential decay to the data. The rate constant for each acrylamide with Cdk2 was divided by the rate constant for that fragment with the model thiol to provide the rate enhancement for each ligand candidate.
The model thiol used in Example 2 is a mutant form of human Cdk2 (C177A, F80C, K278C) which contains two engineered surface exposed cysteine residues. Mutations were introduced by site-directed mutagenesis and the resulting cDNA was cloned into the pRSETA bacterial expression vector to generate a poly-histidine tagged Cdk2 fusion that was purified from E. coli using standard techniques.

The nature of test [3]: Kinetic thiol consumption assay with model thiol glutathione. Type of test: physicochemical. Further details: Rate constant with glutathione (k(GSH)): unit not given here. Particulars: for Rate constant with glutathione (k(GSH)): 500 μM ligand, 5 μM thiol, phosphate buffer pH 8; for Rate constant with Glutathione: Protein: Glutathione, cysteine position NA, in h-1. In outline:
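GSH 5 μM, degassed phosphate buffer pH 8, TCEP beads 2% v/v; acrylamide added; RT, 1 h; fluorescence ex/em 380/470 nm; normalized to DMSO/thiol control; k from first-order exponential decay fit.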

The target in test [4] is T3, human cyclin-dependent kinase 2 (Cdk2) (Homo sapiens, UniProt P24941).
T3 construct: poly-histidine; made in house; host or cells: E. coli
As to the kind of experiment: Kinetic thiol consumption assay with wild type Cdk2 (C177). The class given is binding. Particulars: for Rate constant with Cdk2 (k(Cdk2)): 500 μM ligand, 5 μM thiol, phosphate buffer pH 8; for Rate enhancement, Cdk2 WT: no additional mutations; for Rate constant with Cdk2 WT: Protein: Cdk2, cysteine position WT, in h^-1; for k(Cdk2)/k(Cdk2_mut) rate enhancement: model thiol Cdk2[C177A, F80C, K278C]; for k(Cdk2)/k(GSH) rate enhancement: model thiol glutathione. Further details: key to Rate enhancement, Cdk2 WT: k(Cdk2) divided by k(model thiol); Rate constant with Cdk2 (k(Cdk2)): unit not given here. In outline: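 Rate constants came from first-order exponential decay fits of normalized fluorescence against time, with thiol (5 μM) in degassed pH 8 phosphate buffer containing 2% v/v TCEP beads and reads after 1 h at room temperature.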

The target in test [5] is T4, Cdk2(C177A, F80C) (Homo sapiens, UniProt P24941, C177A/F80C).
T4 construct: poly-histidine; made in house; host or cells: E. coli
The test can be described thus: Kinetic thiol consumption assay with Cdk2 mutant F80C, incl. kobs versus concentration (Kd, k2). Type of test: binding. Also on record: key to Rate enhancement, Cdk2 F80C: Cdk2 rate constant divided by model-thiol rate constant. The conditions noted are these: additional mutation C177A; for Rate constant with Cdk2 F80C: Protein: Cdk2, cysteine position F80C, in h^-1. An outline of the steps:
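His-tagged Cdk2(C177A/F80C) from E. coli or model thiol, 5 μM in degassed phosphate buffer pH 8 with TCEP beads, reacted with acrylamide ligands; fluorescence (ex/em 380/470 nm) normalized to DMSO control and fitted to first-order decay for kobs. Kd and k2 obtained from hyperbolic fit of kobs versus ligand concentration.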

For test [6], the target named is T5, Cdk2(S276C) (C177A) (Homo sapiens, UniProt P24941, C177A/S276C).
T5 construct: poly-histidine; made in house; host or cells: E. coli
The test can be described thus: Kinetic thiol consumption assay with Cdk2 mutant S276C. The class given is binding. Further details: key to Rate enhancement, Cdk2 S276C: rate constant with Cdk2 ÷ rate constant with model thiol (fold). The conditions noted are these: additional mutation C177A; for Rate constant with Cdk2 S276C: Protein: Cdk2, cysteine position S276C, in h^-1. An outline of the steps:
as §1

Test [7] deals with T6, Cdk2(R122C) (C177A) (Homo sapiens, UniProt P24941, C177A/R122C).
T6 construct: poly-histidine; made in house; host or cells: E. coli
As to the kind of experiment: Kinetic thiol consumption assay with Cdk2 mutant R122C. The class given is binding. Further details: key to Rate enhancement, Cdk2 R122C: rate constant with Cdk2 ÷ rate constant with model thiol (fold). The conditions noted are these: additional mutation C177A. In outline: as §1

Test [8] deals with T7, Cdk2(N272C) (C177A) (Homo sapiens, UniProt P24941, C177A/N272C).
T7 construct: poly-histidine; made in house; host or cells: E. coli
As to the kind of experiment: Kinetic thiol consumption assay with Cdk2 mutant N272C. Type of test: binding. Also on record: key to Rate enhancement, Cdk2 N272: rate constant with Cdk2 ÷ rate constant with model thiol (fold). The conditions noted are these: for Rate enhancement, Cdk2 N272: Cdk2 N272, additional mutation C177A; for Rate constant with Cdk2 N272C: Protein: Cdk2, cysteine position N272C, additional mutation C177A, in h^-1. An outline of the steps:
as §1

The target of test [9] is T8, Cdk2(H71C) (C177A) (Homo sapiens, UniProt P24941, C177A/H71C).
T8 construct: poly-histidine; made in house; host or cells: E. coli
The test can be described thus: Kinetic thiol consumption assay with Cdk2 mutant H71C. The class given is binding. Further details: key to Rate enhancement, Cdk2 H71C: rate constant with Cdk2 ÷ rate constant with model thiol (fold). The conditions noted are these: additional mutation C177A; for Rate constant with Cdk2 H71C: Protein: Cdk2, cysteine position H71C, in h^-1. An outline of the steps: as §1

In test [10] the target is T9, Cdk2(S181C) (C177A) (Homo sapiens, UniProt P24941, C177A/S181C).
T9 construct: poly-histidine; made in house; host or cells: E. coli
The test can be described thus: Kinetic thiol consumption assay with Cdk2 mutant S181C. The class given is binding. Further details: key to Rate enhancement, Cdk2 S181C: rate constant with Cdk2 ÷ rate constant with model thiol (fold). The conditions noted are these: additional mutation C177A; for Rate constant with Cdk2 S181C: Protein: Cdk2, cysteine position S181C, in h^-1. In outline:
as §1

As to `C=CC(=O)Nc1cccc(C(F)(F)F)c1` [BN-80], in test [1], the “Rate enhancement, Cdk2 T182C” value worked out at 4.026 and the “Rate constant with Cdk2 T182C” value is given as 0.1201. Also, in test [2], the “Rate constant with Cdk2[C177A, F80C, K278C] (k(Cdk2_mut))” value is reported as 0.1284. Besides, in test [3], the “Rate constant with glutathione (k(GSH))” value is recorded as 0.02984 and the “Rate constant with Glutathione” value is reported as 0.02983. For the same molecule, in [4], the “Rate constant with Cdk2 (k(Cdk2))” value is 0.0419; the “Rate enhancement, Cdk2 WT” value is on record as 1.405; the “Rate constant with Cdk2 WT” value came to 0.0419; the “k(Cdk2)/k(Cdk2_mut) rate enhancement” value is listed as 0.3263. Moreover, in test [4], the “k(Cdk2)/k(GSH) rate enhancement” value is 1.404. Moreover, in [5], the “Rate enhancement, Cdk2 F80C” value came to 1.308 and the “Rate constant with Cdk2 F80C” value turned out to be 0.03902. Besides, in test [6], the “Rate enhancement, Cdk2 S276C” value amounted to 0.6024 and the “Rate constant with Cdk2 S276C” value is on record as 0.01797. Further, the “Rate enhancement, Cdk2 R122C” value in test [7] was 0.5528. Also, the “Rate constant with Cdk2 R122C” value in test [7] (Protein: Cdk2, cysteine position R122C, in h-1) amounted to 0.01649. Further, in test [8], the “Rate enhancement, Cdk2 N272” value was found to be 0.2072 and the “Rate constant with Cdk2 N272C” value was 0.006181. In [9], the “Rate enhancement, Cdk2 H71C” value is 0.1247 and the “Rate constant with Cdk2 H71C” value is 0.003721. In addition, in test [10], the “Rate enhancement, Cdk2 S181C” value was 0.4626 and the “Rate constant with Cdk2 S181C” value was 0.0138.

Regarding `C=CC(=O)NCCN1CCOCC1` [BN-346], in test [1], the “Rate enhancement, Cdk2 T182C” value was found to be 0.1853 and the “Rate constant with Cdk2 T182C” value amounted to 0.000862. In addition, in [2], the “Rate constant with Cdk2[C177A, F80C, K278C] (k(Cdk2_mut))” value was found to be 0.00146. Further, in [3], the “Rate constant with glutathione (k(GSH))” value worked out at 0.00299 and the “Rate constant with Glutathione” value amounted to 0.004652. In addition, in test [4], the “Rate constant with Cdk2 (k(Cdk2))” value came to 0.00428; the “Rate enhancement, Cdk2 WT” value came to 1.185; the “Rate constant with Cdk2 WT” value is 0.005514; the “k(Cdk2)/k(Cdk2_mut) rate enhancement” value is reported as 2.921. Further, the “k(Cdk2)/k(GSH) rate enhancement” value in test [4] was 1.429. Further, in test [5], the “Rate enhancement, Cdk2 F80C” value amounted to 0.189 and the “Rate constant with Cdk2 F80C” value turned out to be 0.0008792. Besides, in test [6], the “Rate enhancement, Cdk2 S276C” value was 0.2004 and the “Rate constant with Cdk2 S276C” value worked out at 0.0009323. In addition, the “Rate enhancement, Cdk2 R122C” value in test [7] came to 0. In test [8], the “Rate enhancement, Cdk2 N272” value was 0.4286 and the “Rate constant with Cdk2 N272C” value is recorded as 0.001994. Moreover, in [9], the “Rate enhancement, Cdk2 H71C” value is reported as 0.09555 and the “Rate constant with Cdk2 H71C” value was found to be 0.0004445. In [10], the “Rate enhancement, Cdk2 S181C” value is reported as 0.233 and the “Rate constant with Cdk2 S181C” value is recorded as 0.001084.
